Columns and labels:
[1] = target: T1, TrCel7A core (Trichoderma reesei, UniProt P62694); assay: isothermal titration calorimetry; conditions: 30°C, binding constant on a molar concentration scale (unit not given)
T1 construct: gene cbh1; GH7 catalytic domain only, first 436 residues after the 17-residue signal peptide; linker and C-terminal family 1 CBM removed; recombinant from Aspergillus oryzae, purified
T1 sequence (P62694 18-453): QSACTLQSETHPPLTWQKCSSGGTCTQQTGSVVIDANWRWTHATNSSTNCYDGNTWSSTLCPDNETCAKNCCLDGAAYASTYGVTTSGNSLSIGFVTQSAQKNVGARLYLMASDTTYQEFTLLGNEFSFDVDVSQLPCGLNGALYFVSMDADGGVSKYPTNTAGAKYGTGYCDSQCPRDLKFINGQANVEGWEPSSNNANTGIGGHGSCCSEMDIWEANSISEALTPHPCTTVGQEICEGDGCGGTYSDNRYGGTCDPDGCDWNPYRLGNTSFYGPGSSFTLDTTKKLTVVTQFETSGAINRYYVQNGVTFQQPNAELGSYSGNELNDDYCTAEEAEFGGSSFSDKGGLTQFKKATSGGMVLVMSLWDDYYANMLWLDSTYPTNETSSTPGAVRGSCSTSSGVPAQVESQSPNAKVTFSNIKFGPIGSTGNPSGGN
Source text: isothermal titration calorimetry on TrCel7A core

[2] = target: T2, TrCel7A (Trichoderma reesei, UniProt P62694); assay: isothermal titration calorimetry; conditions: 30°C; binding constant on a molar concentration scale (unit not given)
T2 construct: gene cbh1; full-length secreted enzyme (GH7 catalytic domain, glycosylated linker, family 1 CBM), 17-residue signal peptide removed, 52 kDa; recombinant from Aspergillus oryzae, purified
T2 sequence (P62694 18-513): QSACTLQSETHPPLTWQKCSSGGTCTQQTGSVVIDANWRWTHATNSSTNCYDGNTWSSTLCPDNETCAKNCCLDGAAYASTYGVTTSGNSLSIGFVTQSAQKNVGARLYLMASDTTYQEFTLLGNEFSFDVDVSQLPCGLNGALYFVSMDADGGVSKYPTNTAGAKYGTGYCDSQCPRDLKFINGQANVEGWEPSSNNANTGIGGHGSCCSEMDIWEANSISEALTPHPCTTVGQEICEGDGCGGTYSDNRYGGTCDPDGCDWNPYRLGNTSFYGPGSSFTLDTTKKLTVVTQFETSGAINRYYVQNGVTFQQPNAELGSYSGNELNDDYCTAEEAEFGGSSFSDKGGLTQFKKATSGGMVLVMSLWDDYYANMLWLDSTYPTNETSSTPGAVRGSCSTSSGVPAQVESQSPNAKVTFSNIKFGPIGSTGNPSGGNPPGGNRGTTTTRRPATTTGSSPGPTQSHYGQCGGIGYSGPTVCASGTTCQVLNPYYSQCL
Source text: isothermal titration calorimetry on TrCel7A

Row | TrCel7A core (K) [1] | TrCel7A (K) [2] | TrCel7A core (K) ([1]; compound identity contradictory in print (name hexaose, formula (xyl)5)) | Molecule
1 | 7.43 × 10^3 | 5.76 × 10^3 |  | OC1OC[C@@H](O[C@@H]2OC[C@@H](O[C@@H]3OC[C@@H](O[C@@H]4OC[C@@H](O[C@@H]5OC[C@@H](O[C@@H]6OC[C@@H](O[C@@H]7OC[C@@H](O)[C@H](O)[C@H]7O)[C@H](O)[C@H]6O)[C@H](O)[C@H]5O)[C@H](O)[C@H]4O)[C@H](O)[C@H]3O)[C@H](O)[C@H]2O)[C@H](O)[C@H]1O (some centres unmarked) [Xyloheptaose]
2 | 2.97 × 10^3 |  |  | OC1OC[C@@H](O[C@@H]2OC[C@@H](O[C@@H]3OC[C@@H](O[C@@H]4OC[C@@H](O)[C@H](O)[C@H]4O)[C@H](O)[C@H]3O)[C@H](O)[C@H]2O)[C@H](O)[C@H]1O (some centres unmarked) [Xylotetraose]
3 | > 1.0 × 10^3 |  |  | OC1OC[C@@H](O[C@@H]2OC[C@@H](O[C@@H]3OC[C@@H](O)[C@H](O)[C@H]3O)[C@H](O)[C@H]2O)[C@H](O)[C@H]1O (some centres unmarked) [Xylotriose]
4 |  |  | 3.44 × 10^3 | Xylohexaose (xyl)5

Reference: PMC3257202, “Xylan oligosaccharides and cellobiohydrolase I (TrCel7A) interaction and effect on activity” (Biotechnology for Biofuels, 2011)
